Laboratory results as given in US20210309631A1, “SALT OF CYCLOHEXANE DERIVATIVE” (priority 2018, published 2021).

How the values were obtained:
[1] = Hygroscopicity (DVS) experiment, 25° C./80% relative humidity; format: physicochemical
Procedure: Dynamic vapor sorption curves were collected on a DVS Intrinsic by SMS (Surface Measurement Systems).
20 mg sample of the crystal forms of the Examples and Comparative Examples are placed in the environment of 25° C./80% relative humidity for a dynamic vapor sorption (DVS) test, and the test results […] are shown in Table 5.

[2] = solubility in water; format: physicochemical; conditions: listed as sulfate Form A
[3] = In vivo individual difference analysis: individual plasma concentration versus time in rats (Example 8); set-up: species or system SD rats; conditions: intragastric 1 mg/kg, listed as Sulfate of Compound of Formula I
Procedure: Compound of Formula I and salts thereof (sulfate, hydrochloride salt, phosphate, maleate), supplied by Shanghai Jingxin Biopharmaceutical Co., Ltd. • Strain: SD rats; Gender: male; Body weight: about 250 grams; Source: shanghai Jiesijie Experimental Animal Co., Ltd Route: single intragastric administration; Capacity: measured in 10 mL/kg body weight Preparation: weighing appropriate amount of the free base or salt of the compound of Formula I, adding a small amount of 0.5% CMC-Na to grind, adding 0.5% CMC-Na to the volume. The concentration is measured as the base. 20 SD rats were divided into 5 groups with 4 rats in each group, fasted for 12 h and drank freely before administration. […] The blood was anticoagulated with 1% heparin, the plasma was separated by 8000 rpm centrifugation for 4 min and stored at -40° C. for testing. LC-MS/MS Method. Pharmacokinetic parameters after administration in rats were calculated using a non-compartmental model of DAS 2.0 software.

[4] = Plasma pharmacokinetics in SD rats after single intragastric administration (Example 7); format: in vivo; conditions: intragastric 1 mg/kg, Mean ± SD, non-compartmental model, listed as Sulfate
Procedure: The in vivo absorption process and characteristics of the free base and four salts thereof (sulfate, hydrochloride salt, phosphate, maleate) of compound (I) in rats were studied. The pharmacokinetics of a single intragastric administration of 1 mg/kg of a compound of Formula I and four salts thereof (calculated by free base concentration in salt form) were studied in SD rats.
SD rats were given a single intragastric administration of 1 mg/kg free base of Example 1 and four salts thereof (including hydrochloride salt from Example 2, sulfate from Example 3, phosphate from Example 4 and maleate from Example 5). There were 4 male rats in each group. The concentration of the compound of Formula I in plasma was determined, and the pharmacokinetic parameters were calculated according to the concentration-time curve.

[5] = DVS, 25° C./80% relative humidity, listed as Example 3 sulfate

## CN(C)C(=O)N[C@H]1CC[C@H](CCN2CCN(c3cccc4ccsc34)CC2)CC1 [Example 3, N′-[trans-4-[2-[7-(benzo[b]thiophene)-7-piperazinyl]ethyl]cyclohexyl]-N,N-dimethylurea]
[1]; [5]
  Hygroscopicity: Slight
  Vapor sorption: 0.23%
[1]; after DVS testing
  The crystal form changes after DVS testing or not: No
[2]
  solubility in water: greater than 8.0 mg/ml
[3]; 5 min after administration, Mean ± SD
  Plasma Concentrations of Compound of Formula I: 2.25 ± 0.476 ng/mL
[3]; 5 min after administration, rat 1♂
  Plasma Concentrations of Compound of Formula I: 1.54 ng/mL
[3]; 5 min after administration, rat 2♂
  Plasma Concentrations of Compound of Formula I: 2.41 ng/mL
[3]; 5 min after administration, rat 3♂
  Plasma Concentrations of Compound of Formula I: 2.56 ng/mL
[3]; 5 min after administration, rat 4♂
  Plasma Concentrations of Compound of Formula I: 2.48 ng/mL
[3]; 0.167 h after administration, Mean ± SD
  Plasma Concentrations of Compound of Formula I: 21.7 ± 2.45 ng/mL
[3]; 0.167 h after administration, rat 1♂
  Plasma Concentrations of Compound of Formula I: 24.0 ng/mL
[3]; 0.167 h after administration, rat 2♂
  Plasma Concentrations of Compound of Formula I: 18.4 ng/mL
[3]; 0.167 h after administration, rat 3♂
  Plasma Concentrations of Compound of Formula I: 23.0 ng/mL
[3]; 0.167 h after administration, rat 4♂
  Plasma Concentrations of Compound of Formula I: 21.3 ng/mL
[3]; 0.333 h after administration, Mean ± SD
  Plasma Concentrations of Compound of Formula I: 51.2 ± 2.32 ng/mL
[3]; 0.333 h after administration, rat 1♂
  Plasma Concentrations of Compound of Formula I: 50.4 ng/mL
[3]; 0.333 h after administration, rat 2♂
  Plasma Concentrations of Compound of Formula I: 54.4 ng/mL
[3]; 0.333 h after administration, rat 3♂
  Plasma Concentrations of Compound of Formula I: 51.0 ng/mL
[3]; 0.333 h after administration, rat 4♂
  Plasma Concentrations of Compound of Formula I: 48.9 ng/mL
[3]; 0.5 h after administration, Mean ± SD
  Plasma Concentrations of Compound of Formula I: 49.9 ± 10.4 ng/mL
[3]; 0.5 h after administration, rat 1♂
  Plasma Concentrations of Compound of Formula I: 56.0 ng/mL
[3]; 0.5 h after administration, rat 2♂
  Plasma Concentrations of Compound of Formula I: 36.0 ng/mL
[3]; 0.5 h after administration, rat 3♂
  Plasma Concentrations of Compound of Formula I: 48.0 ng/mL
[3]; 0.5 h after administration, rat 4♂
  Plasma Concentrations of Compound of Formula I: 59.4 ng/mL
[3]; 1 h after administration, Mean ± SD
  Plasma Concentrations of Compound of Formula I: 39.2 ± 6.84 ng/mL
[3]; 1 h after administration, rat 1♂
  Plasma Concentrations of Compound of Formula I: 42.6 ng/mL
[3]; 1 h after administration, rat 2♂
  Plasma Concentrations of Compound of Formula I: 30.0 ng/mL
[3]; 1 h after administration, rat 3♂
  Plasma Concentrations of Compound of Formula I: 38.5 ng/mL
[3]; 1 h after administration, rat 4♂
  Plasma Concentrations of Compound of Formula I: 45.8 ng/mL
[3]; 2 h after administration, Mean ± SD
  Plasma Concentrations of Compound of Formula I: 23.2 ± 7.54 ng/mL
[3]; 2 h after administration, rat 1♂
  Plasma Concentrations of Compound of Formula I: 32.7 ng/mL
[3]; 2 h after administration, rat 2♂
  Plasma Concentrations of Compound of Formula I: 14.5 ng/mL
[3]; 2 h after administration, rat 3♂
  Plasma Concentrations of Compound of Formula I: 24.1 ng/mL
[3]; 2 h after administration, rat 4♂
  Plasma Concentrations of Compound of Formula I: 21.3 ng/mL
[3]; 4 h after administration, Mean ± SD
  Plasma Concentrations of Compound of Formula I: 7.92 ± 3.01 ng/mL
[3]; 4 h after administration, rat 1♂
  Plasma Concentrations of Compound of Formula I: 10.3 ng/mL
[3]; 4 h after administration, rat 2♂
  Plasma Concentrations of Compound of Formula I: 4.31 ng/mL
[3]; 4 h after administration, rat 3♂
  Plasma Concentrations of Compound of Formula I: 10.5 ng/mL
[3]; 4 h after administration, rat 4♂
  Plasma Concentrations of Compound of Formula I: 6.57 ng/mL
[3]; 6 h after administration, Mean ± SD
  Plasma Concentrations of Compound of Formula I: 2.87 ± 1.10 ng/mL
[3]; 6 h after administration, rat 1♂
  Plasma Concentrations of Compound of Formula I: 3.08 ng/mL
[3]; 6 h after administration, rat 2♂
  Plasma Concentrations of Compound of Formula I: 1.35 ng/mL
[3]; 6 h after administration, rat 3♂
  Plasma Concentrations of Compound of Formula I: 3.99 ng/mL
[3]; 6 h after administration, rat 4♂
  Plasma Concentrations of Compound of Formula I: 3.05 ng/mL
[3]; 9 h after administration, Mean ± SD
  Plasma Concentrations of Compound of Formula I: 1.15 ± 0.444 ng/mL
[3]; 9 h after administration, rat 1♂
  Plasma Concentrations of Compound of Formula I: 1.30 ng/mL
[3]; 9 h after administration, rat 2♂
  Plasma Concentrations of Compound of Formula I: 0.643 ng/mL
[3]; 9 h after administration, rat 3♂
  Plasma Concentrations of Compound of Formula I: 1.68 ng/mL
[3]; 9 h after administration, rat 4♂
  Plasma Concentrations of Compound of Formula I: 0.973 ng/mL
[3]; 12 h after administration, Mean ± SD
  Plasma Concentrations of Compound of Formula I: 0.606 ± 0.221 ng/mL
[3]; 12 h after administration, rat 1♂
  Plasma Concentrations of Compound of Formula I: 0.718 ng/mL
[3]; 12 h after administration, rat 2♂
  Plasma Concentrations of Compound of Formula I: 0.317 ng/mL
[3]; 12 h after administration, rat 3♂
  Plasma Concentrations of Compound of Formula I: 0.827 ng/mL
[3]; 12 h after administration, rat 4♂
  Plasma Concentrations of Compound of Formula I: 0.561 ng/mL
[3]; 24 h after administration, Mean ± SD
  Plasma Concentrations of Compound of Formula I: 0.244 ± 0.161 ng/mL
[3]; 24 h after administration, rat 1♂
  Plasma Concentrations of Compound of Formula I: 0.213 ng/mL
[3]; 24 h after administration, rat 2♂
  Plasma Concentrations of Compound of Formula I: 0.135 ng/mL
[3]; 24 h after administration, rat 3♂
  Plasma Concentrations of Compound of Formula I: 0.148 ng/mL
[3]; 24 h after administration, rat 4♂
  Plasma Concentrations of Compound of Formula I: 0.479 ng/mL
[4]
  MRT0-∞: 2.87 ± 0.283 h
  Tmax: 0.417 ± 0.096 h
  t1/2: 2.67 ± 0.267 h
